Data on ten compounds can be found in ChEMBL document CHEMBL4364295, “Discovery of a First-in-Class Receptor Interacting Protein 2 (RIP2) Kinase Specific Clinical Candidate, 2-((4-(Benzo[d]thiazol-5-ylamino)-6-(tert-butylsulfonyl)quinazolin-7-yl)oxy)ethyl Dihydrogen Phosphate, for the Treatment of Inflammatory Diseases” (J Med Chem, 2019).

What is called solubility is how much of the substance goes into solution per volume. A higher solubility goes with much dissolved substance. Broadly, the AUC is concentration integrated over time. The IC50 is the point on the concentration scale where inhibition reaches its midpoint. The inhibition is the percentage by which the read-out fell short of the control.

The nature of data set [1]: Solubility of the compound in FaSSIF measured after 4 hrs. It counts as physicochemical.
A short description of data set [2]: Drug uptake in po dosed Sprague-Dawley rat systemic circulation by LC/MS/MS analysis. In kind it is ADME, organism-based. To be noted: in vivo.
A short description of data set [3]: AUC in Sprague-Dawley rat assessed as 2-((4-(Benzo[d]thiazol-5-ylamino)-6-(tert-butylsulfonyl)quinazolin-7-yl)oxy)ethanol level at 2 mg/kg, po by LC/MS/MS analysis. It counts as ADME, organism-based. The conditions noted are these: in vivo.
Data set [4] can be described thus: AUC in Sprague-Dawley rat at 2 mg/kg, po by LC/MS/MS analysis. In kind it is ADME, organism-based. The conditions noted are these: in vivo.
Data set [5] concerns the target T1, Voltage-gated inwardly rectifying potassium channel KCNH2 (Homo sapiens, UniProt Q12809). The data set can be described thus: Inhibition of human ERG (1159 residues) expressed in CHOK1 cells at -80 mV holding potential measured after 5 mins by QPatch electrophysiology method. In kind it is cell-based.
The target of data set [6] is T2, Receptor-interacting serine/threonine-protein kinase 2 (Homo sapiens, UniProt O43353). The data set can be described thus: Inhibition of RIPK2 in human whole blood assessed as reduction in MDP-induced TNFalpha production preincubated for 30 mins followed by MDP-stimulation and measured after 6 hrs by immunoassay. It counts as tissue-based.
Data set [7] addresses T2, Receptor-interacting serine/threonine-protein kinase 2. In words: Inhibition of fluorescent-labelled ligand binding to human RIP2K preincubated for 10 mins followed by fluorescent-labelled ligand addition and measured after 10 mins by fluorescence polarization assay. On the technique in general: Fluorescence polarisation rises when a labelled molecule tumbles more slowly, as on binding a larger partner.

Data set [8] can be described thus: Solubility of the compound in FaSSIF. In kind it is physicochemical. To be noted: simulated gi fluid.
The nature of data set [9]: Solubility of the compound in FeSSIF. The conditions noted are these: simulated gi fluid. In kind it is physicochemical.
The next data set relates to Cricetinae. The data set can be described thus: Displacement of [125I]2-iodomelatonin from hamster MT3 receptor at 10 uM measured after 60 mins by scintillation counting method.
The target of data set [10] is Vascular endothelial growth factor receptor 3 (Homo sapiens) (UniProt P35916). The data set can be described thus: Inhibition of human VEGFR3 at 1 uM using poly[Glu:Tyr] (4:1) as substrate in presence of [gamma-33P]ATP relative to control.
The subject of data set [11] is Mus musculus. The data set can be described thus: Antiinflammatory activity TNBS-induced mouse model of colitis assessed as decrease in colitis score at 7.5 to 145 mg/kg, po administered twice daily via gavage pretreated for 2 days followed by TNBS stimulation on day 3 and subsequent compound dosing from day 3 to 6 measured post-last dose by histological analysis. In kind it is functional, organism-based.

In another data set the target is CYP3A4 (Homo sapiens, UniProt P08684). In words: Ratio of IC50 for time dependent inhibition of CYP3A4 (unknown origin) in presence of NADPH to IC50 for time dependent inhibition of CYP3A4 (unknown origin) in absence of NADPH. To be noted: read-out: Ratio IC50.
Data set [12] concerns the target T3, Cytochrome P450 3A4 (Homo sapiens, UniProt P08684). The data set can be described thus: Inhibition of CYP3A4 (unknown origin) at 126 nM. It counts as ADME. The conditions noted are these: 0.126 µM.
The target of data set [13] is T1, Voltage-gated inwardly rectifying potassium channel KCNH2. The data set can be described thus: Inhibition of human ERG (1159 residues) expressed in CHOK1 cells at 7.3 uM at -80 mV holding potential measured after 5 mins by QPatch electrophysiology method. In kind it is cell-based.
Data set [14] is described as follows: Prodrug conversion in Sprague-Dawley rat hepatic portal vein assessed as 2-((4-(Benzo[d]thiazol-5-ylamino)-6-(tert-butylsulfonyl)quinazolin-7-yl)oxy)ethanol formation. In kind it is ADME. To be noted: in vivo.
Data set [15] concerns the target T3, Cytochrome P450 3A4. In words: Time dependent inhibition of CYP3A4 (unknown origin). In kind it is ADME.
For data set [16], the system named is Intestinal mucosa. In words: Antiinflammatory activity in ulcerative colitis patient derived inflamed intestinal mucosa assessed as reduction in IL1beta production at 1 uM measured after overnight incubation by immunoassay. In kind it is functional, tissue-based. The conditions noted are these: Homo sapiens.
In data set [17] the test system is Intestinal mucosa. The data set can be described thus: Antiinflammatory activity in crohn's disease patient derived inflamed intestinal mucosa assessed as reduction in IL1beta production at 1 uM measured after overnight incubation by immunoassay. In kind it is functional, tissue-based. The conditions noted are these: Homo sapiens.
Data set [18] has as its system Intestinal mucosa. The data set can be described thus: Antiinflammatory activity in crohn's disease patient derived inflamed intestinal mucosa assessed as reduction in IL6 production at 1 uM measured after overnight incubation by immunoassay. In kind it is functional, tissue-based. To be noted: Homo sapiens.
The test system of data set [19] is Intestinal mucosa. The data set can be described thus: Antiinflammatory activity in ulcerative colitis patient derived inflamed intestinal mucosa assessed as reduction in IL6 production at 1 uM measured after overnight incubation by immunoassay. It counts as functional, tissue-based. To be noted: Homo sapiens.
The subject of data set [20] is Mus musculus. The data set can be described thus: Antiinflammatory activity TNBS-induced mouse model of colitis assessed as decrease in colitis score at 1.5 mg/kg, po administered twice daily via gavage pretreated for 2 days followed by TNBS stimulation on day 3 and subsequent compound dosing from day 3 to 6 measured post-last dose by histological analysis. In kind it is functional, organism-based.

The species entered for data set [21] is Homo sapiens. The data set can be described thus: Inhibition of NOD2/TLR5 in human PBMC assessed as reduction in MDP/flagellin-induced TNFalpha production preincubated for 30 mins followed by […] and measured after 6 hrs by immunoassay.
The species entered for data set [22] is Homo sapiens. The data set can be described thus: Inhibition of NOD2/TLR5 in human PBMC assessed as reduction in MDP/flagellin-induced IL6 production preincubated for 30 mins followed by […] and measured after 6 hrs by immunoassay.
For data set [23], the species on record is Homo sapiens. The data set can be described thus: Inhibition of NOD2/IL1R in human PBMC assessed as reduction in MDP/Il1alpha-induced TNFalpha production preincubated for 30 mins followed by […] and measured after 6 hrs by immunoassay.
Data set [24] can be described thus: (§1) Inhibition of NOD2/TLR2 in human PBMC assessed as reduction in MDP/Pam2CSK4-induced TNFalpha production preincubated for 30 mins followed by MDP/Pam2CSK4 stimulation and measured after 6 hrs by immunoassay.
Data set [25] is filed under the species Homo sapiens. Described as §1.
The species named for data set [26] is Homo sapiens. In words: Inhibition of NOD2/TLR4 in human PBMC assessed as reduction in MDP/LPS-induced IL6 production preincubated for 30 mins followed by […] and measured after 6 hrs by immunoassay.
Data set [27] is filed under the species Homo sapiens. The data set can be described thus: Inhibition of NOD2/IL1R in human PBMC assessed as reduction in MDP/Il1alpha-induced IL6 production preincubated for 30 mins followed by […] and measured after 6 hrs by immunoassay.
The species entered for data set [28] is Homo sapiens. In words: Inhibition of NOD2/TLR2 in human PBMC assessed as reduction in MDP/Pam2CSK4-induced IL6 production preincubated for 30 mins followed by MDP/Pam2CSK4 stimulation and measured after 6 hrs by immunoassay.
Data set [29] is filed under the species Homo sapiens. The data set can be described thus: Inhibition of NOD2/TLR4 in human PBMC assessed as reduction in MDP/LPS-induced TNFalpha production preincubated for 30 mins followed by […] and measured after 6 hrs by immunoassay.

Structures are written as SMILES. Converted amounts (≈) assume the structure as drawn. The source made the active and inactive calls. The calls are words filed in the database; no cut-off is given here.

T1 sequence (Q12809 whole entry): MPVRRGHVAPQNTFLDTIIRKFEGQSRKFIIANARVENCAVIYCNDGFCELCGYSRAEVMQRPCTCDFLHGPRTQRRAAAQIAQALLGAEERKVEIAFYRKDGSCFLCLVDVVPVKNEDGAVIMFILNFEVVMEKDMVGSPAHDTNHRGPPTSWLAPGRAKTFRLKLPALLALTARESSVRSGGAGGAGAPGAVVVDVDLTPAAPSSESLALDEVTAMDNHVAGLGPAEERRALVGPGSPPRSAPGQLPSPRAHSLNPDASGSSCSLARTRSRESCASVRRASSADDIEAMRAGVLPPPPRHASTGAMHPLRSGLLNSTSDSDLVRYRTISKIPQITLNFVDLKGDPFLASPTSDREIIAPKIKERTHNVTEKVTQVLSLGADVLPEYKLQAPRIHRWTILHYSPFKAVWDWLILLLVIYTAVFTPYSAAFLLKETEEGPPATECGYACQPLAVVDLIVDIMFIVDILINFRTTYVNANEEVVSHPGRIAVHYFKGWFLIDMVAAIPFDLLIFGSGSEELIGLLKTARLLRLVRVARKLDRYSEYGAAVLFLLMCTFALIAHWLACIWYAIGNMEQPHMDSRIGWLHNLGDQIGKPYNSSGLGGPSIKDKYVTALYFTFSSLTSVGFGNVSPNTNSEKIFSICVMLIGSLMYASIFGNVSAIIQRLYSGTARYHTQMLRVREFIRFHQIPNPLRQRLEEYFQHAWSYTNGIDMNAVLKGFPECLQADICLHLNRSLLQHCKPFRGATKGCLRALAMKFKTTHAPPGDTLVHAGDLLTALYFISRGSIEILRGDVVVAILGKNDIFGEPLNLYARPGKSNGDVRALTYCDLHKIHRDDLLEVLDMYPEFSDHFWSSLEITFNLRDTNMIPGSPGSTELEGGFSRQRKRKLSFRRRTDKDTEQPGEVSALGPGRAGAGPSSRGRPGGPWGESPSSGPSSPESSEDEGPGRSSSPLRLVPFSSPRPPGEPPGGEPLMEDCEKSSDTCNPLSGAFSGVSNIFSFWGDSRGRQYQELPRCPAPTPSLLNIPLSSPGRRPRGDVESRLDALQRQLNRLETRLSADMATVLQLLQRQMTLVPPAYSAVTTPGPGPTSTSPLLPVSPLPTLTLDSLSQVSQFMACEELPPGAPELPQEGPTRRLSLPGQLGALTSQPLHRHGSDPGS
T2 sequence (O43353 whole entry): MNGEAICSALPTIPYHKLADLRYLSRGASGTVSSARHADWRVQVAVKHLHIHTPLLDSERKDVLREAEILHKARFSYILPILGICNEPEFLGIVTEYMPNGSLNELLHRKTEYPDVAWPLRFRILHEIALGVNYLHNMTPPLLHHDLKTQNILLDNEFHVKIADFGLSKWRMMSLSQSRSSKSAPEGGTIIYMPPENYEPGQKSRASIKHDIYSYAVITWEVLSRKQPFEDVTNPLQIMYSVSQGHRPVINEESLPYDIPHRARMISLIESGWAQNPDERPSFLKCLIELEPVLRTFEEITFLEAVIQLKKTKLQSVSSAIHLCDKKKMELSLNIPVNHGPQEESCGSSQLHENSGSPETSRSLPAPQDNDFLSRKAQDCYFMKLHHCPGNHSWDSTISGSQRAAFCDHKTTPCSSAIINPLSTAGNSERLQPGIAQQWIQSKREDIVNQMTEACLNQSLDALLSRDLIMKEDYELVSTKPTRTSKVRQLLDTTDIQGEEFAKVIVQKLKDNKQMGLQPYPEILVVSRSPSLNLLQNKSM
T3 sequence (P08684 whole entry): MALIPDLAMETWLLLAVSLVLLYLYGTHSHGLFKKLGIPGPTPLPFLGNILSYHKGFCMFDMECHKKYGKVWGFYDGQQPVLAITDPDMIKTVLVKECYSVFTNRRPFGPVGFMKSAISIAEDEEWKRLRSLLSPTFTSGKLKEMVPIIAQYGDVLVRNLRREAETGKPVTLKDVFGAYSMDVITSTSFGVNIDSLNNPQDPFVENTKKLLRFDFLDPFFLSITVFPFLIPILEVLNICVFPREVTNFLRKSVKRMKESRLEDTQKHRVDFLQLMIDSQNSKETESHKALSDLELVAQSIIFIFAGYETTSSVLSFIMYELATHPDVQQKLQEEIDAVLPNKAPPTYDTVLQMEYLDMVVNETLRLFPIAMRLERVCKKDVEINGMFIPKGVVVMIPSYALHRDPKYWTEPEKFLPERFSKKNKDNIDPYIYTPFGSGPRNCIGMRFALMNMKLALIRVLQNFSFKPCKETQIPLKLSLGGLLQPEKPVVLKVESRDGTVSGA
Sequence of Vascular endothelial growth factor receptor 3 (Homo sapiens) (P35916 whole entry): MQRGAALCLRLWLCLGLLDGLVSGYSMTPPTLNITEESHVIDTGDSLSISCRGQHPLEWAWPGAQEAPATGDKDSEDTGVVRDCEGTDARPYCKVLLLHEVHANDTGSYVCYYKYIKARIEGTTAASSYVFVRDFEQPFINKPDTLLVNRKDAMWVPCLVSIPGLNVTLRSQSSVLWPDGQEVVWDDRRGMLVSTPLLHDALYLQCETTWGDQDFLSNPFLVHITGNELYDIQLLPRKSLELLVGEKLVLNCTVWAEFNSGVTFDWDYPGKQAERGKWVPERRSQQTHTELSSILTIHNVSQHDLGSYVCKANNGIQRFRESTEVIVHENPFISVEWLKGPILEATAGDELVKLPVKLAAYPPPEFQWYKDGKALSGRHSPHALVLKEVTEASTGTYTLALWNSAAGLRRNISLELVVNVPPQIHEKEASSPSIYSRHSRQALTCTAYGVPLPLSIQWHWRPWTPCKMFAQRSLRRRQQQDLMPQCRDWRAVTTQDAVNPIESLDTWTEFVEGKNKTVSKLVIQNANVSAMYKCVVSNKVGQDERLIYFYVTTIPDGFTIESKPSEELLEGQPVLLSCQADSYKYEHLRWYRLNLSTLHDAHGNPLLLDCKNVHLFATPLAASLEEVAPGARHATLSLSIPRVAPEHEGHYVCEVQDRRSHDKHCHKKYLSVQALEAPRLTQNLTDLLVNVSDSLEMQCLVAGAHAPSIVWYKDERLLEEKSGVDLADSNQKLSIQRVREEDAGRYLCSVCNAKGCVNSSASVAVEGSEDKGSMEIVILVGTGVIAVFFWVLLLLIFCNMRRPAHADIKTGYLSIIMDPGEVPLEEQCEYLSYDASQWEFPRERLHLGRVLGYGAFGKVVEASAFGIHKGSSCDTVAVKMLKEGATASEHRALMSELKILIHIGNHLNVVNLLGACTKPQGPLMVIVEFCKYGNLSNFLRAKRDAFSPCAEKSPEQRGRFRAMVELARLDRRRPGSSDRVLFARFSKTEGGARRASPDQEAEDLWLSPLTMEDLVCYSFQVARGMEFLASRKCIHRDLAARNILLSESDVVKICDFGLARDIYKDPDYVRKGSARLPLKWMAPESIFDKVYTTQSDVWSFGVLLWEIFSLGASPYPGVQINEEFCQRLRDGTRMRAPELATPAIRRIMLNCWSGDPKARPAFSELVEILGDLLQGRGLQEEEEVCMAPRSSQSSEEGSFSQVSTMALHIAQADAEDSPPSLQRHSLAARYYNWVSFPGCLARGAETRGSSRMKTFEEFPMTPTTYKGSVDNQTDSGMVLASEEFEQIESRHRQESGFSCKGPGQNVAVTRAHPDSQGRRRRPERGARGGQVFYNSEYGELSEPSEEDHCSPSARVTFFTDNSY
Sequence of CYP3A4 (P08684 whole entry): as the sequence (P08684 whole entry) above

On to `CC(C)[C@H](N)C(=O)OCCOc1cc2ncnc(Nc3ccc4scnc4c3)c2cc1S(=O)(=O)C(C)(C)C.Cl.Cl`, for which, in data set [1], the concentration in solution (solubility at 4 h) was 690 µg/mL.

For `CN(C)C(=O)OCCOc1cc2ncnc(Nc3ccc4scnc4c3)c2cc1S(=O)(=O)C(C)(C)C`, in [2], the Drug uptake entry is reported as “Not Active”. For the same compound, the figures for the AUC in data set [3] and in data set [4] were 0.01 µg·h/mL and 10 ng·h/mL, respectively. In [1], the solubility at 4 h amounted to 12 µg/mL (≈ 22.7 µM).

For the compound `COc1cc2ncnc(Nc3ccc4scnc4c3)c2cc1S(=O)(=O)C(C)(C)C`, the results for the IC50 in [5], in data set [6] and in [7] were above 30 µM, 374 nM and 4 nM, respectively.

With `CC(C)(C)S(=O)(=O)c1cc2c(Nc3ccc4scnc4c3)ncnc2cc1OCCOP(=O)(O)O.Cl`, the solubility result in data set [8] and in data set [9] was “Soluble” each time.

Regarding `CC(C)(C)S(=O)(=O)c1cc2c(Nc3ccc4scnc4c3)ncnc2cc1OCCOP(=O)(O)O`, in the data set on Cricetinae, the inhibition entry was “Active”. The inhibition in data set [10] is above 90%. Also, the outcome with Mus musculus [11] was Active.

On to `CC(C)(C)S(=O)(=O)c1cc2c(Nc3ccc4scnc4c3)ncnc2cc1OCCOS(=O)(=O)[O-].[Na+]`, for which the Drug uptake entry in [2] is given as “Not Active”. The solubility at 4 h in data set [1] is 2460 µg/mL.

Turning to `CC(C)[C@H](N)C(=O)OCCOc1cc2ncnc(Nc3ccc4scnc4c3)c2cc1S(=O)(=O)C(C)(C)C`, the Drug uptake entry in [2] is “Not Active”. Also, the AUC in data set [3] came to 0.73 µg·h/mL. Besides, the IC50 shift at CYP3A4 worked out at 2.9. In addition, the “inhibition (INH)” value (against Cytochrome P450 3A4 [12]; in data set [13]; on Cytochrome P450 3A4 [15]) was “Active” in each case. For the same compound, the Drug metabolism result in [14] is listed as “Metabolite_Detected”.

Turning to `C[C@]12C=CC(=O)C=C1CC[C@@H]1[C@@H]2[C@@H](O)C[C@@]2(C)[C@H]1CC[C@]2(O)C(=O)CO`, the outcome with Intestinal mucosa [16], with Intestinal mucosa [17], in the data set with Intestinal mucosa [18], with Intestinal mucosa [19] and in the data set on Mus musculus [20] was Active.

Consider `CC(C)S(=O)(=O)c1ccc2nccc(Nc3n[nH]c4ccc(F)cc34)c2c1`, for which the inhibition result in the data set filed under Homo sapiens [21], in the data set filed under Homo sapiens [22], in the data set listed under Homo sapiens [23], in the data set listed under Homo sapiens [26], in the data set filed under Homo sapiens [27] and in the data set listed under Homo sapiens [28] was “Active” in each case. In the data set filed under Homo sapiens [29], the inhibition entry is “Active”. The IC50 in [24] was 25 nM. Besides, the inhibition result in the data set listed under Homo sapiens [25] was “Dose-dependent effect”.

For `CC(C)(C)S(=O)(=O)c1cc2c(Nc3ccc4scnc4c3)ncnc2cc1OCCOP(=O)([O-])[O-].[Na+].[Na+]`, the solubility result in data set [8] and in [9] was “Soluble” each time.
